Assay results as given in patent US20240327393A1 (SIRONAX LTD., priority 2021, published 2024).

The compounds below were run on HT-1080 (ATCC, CCL-121) cells (assay: HT-1080 cell viability assay with ferroptosis inducer RSL3 (Cell Titer-Glo)). Settings: HT-1080 cells treated with RSL3; 3-fold, 10-point dilution, 1.1 μM highest concentration; Table 3; read-out: EC50 (nM), ferroptosis inhibitory activity.
Assay type: cell-based
Description: Example 2. Determination of EC50 Values in HT-1080 Cell Viability Assay
HT-1080 (ATCC, CCL-121) cells (6000 in 100 μl) were seeded in 96-well plates (Corning) and cultured in a 37° C. incubator with a humidified atmosphere of 5% CO2 for overnight. Cells were then treated with ferroptosis inducer RSL3 (TargetMol) and a 3-fold, 10-point serial dilution series of compounds with 1.1 μM as the highest concentration, […]. Cell viability was assessed using the Cell Titer-Glo Kit (Promega). The luminescence intensity was measured with a microplate reader (Envision, PerkinElmer), and cell viability was calculated by normalizing the data to untreated controls. The EC50 values of the compounds (e.g., Compounds 1-659) were calculated in GraphPad Prism (GraphPad Software, Inc., San Diego, CA, USA). The curves were fitted using a non-linear regression model with a sigmoidal dose response.

Structure (SMILES) | EC50
Cc1cc(Nc2ccc3c(c2)OCC(=O)N3CCO)ccc1N1CC(C)OC(C)C1 (stereo not drawn) [Compound 461, 7-((4-(2,6-dimethylmorpholino)-3-methylphenyl)amino)-4-(2-hydroxyethyl)-2H-benzo[b][1,4]oxazin-3(4H)-one] | 0.1 to 100 nM

Same assay, conditions: Homo sapiens; HT-1080 cells treated with RSL3; 3-fold, 10-point dilution, 1.1 μM highest concentration; Table 2; read-out: EC50 (nM), ferroptosis inhibitory activity

Structure (SMILES) | EC50
NC(=O)CCCN1C(=O)COc2cc(Nc3ccc(N4CCC(C(F)(F)F)CC4)cc3)ccc21 [Compound 46, 4-(3-oxo-7-((4-(4-(trifluoromethyl)piperidin-1-yl)phenyl)amino)-2,3-dihydro-4H-benzo[b][1,4]oxazin-4-yl)butanamide] | 0.1 to 100 nM
CCN1C(=O)COc2cc(Nc3ccc(N4CCC(C(F)(F)F)CC4)nc3)ccc21 [Compound 24, 4-ethyl-7-((6-(4-(trifluoromethyl)piperidin-1-yl)pyridin-3-yl)amino)-2H-benzo[b][1,4]oxazin-3(4H)-one] | 0.1 to 100 nM
CC1CN(c2ccc(Nc3ccc4c(cnn4C)c3)cc2)CC(C)O1 (stereo not drawn) [Compound 422, N-(4-(2,6-dimethylmorpholino)phenyl)-1-methyl-1H-indazol-5-amine] | 0.1 to 100 nM
CC1CCN(c2c(F)cc(Nc3ccc4c(c3)n(C)c(=O)n4C)cc2F)CC1 [Compound 274, 5-((3,5-difluoro-4-(4-methylpiperidin-1-yl)phenyl)amino)-1,3-dimethyl-1,3-dihydro-2H-benzo[d]imidazol-2-one] | 0.1 to 100 nM
CC1CN(c2ncc(Nc3ccc4c(c3)OCC(=O)N4C)cn2)CC(C)O1 (stereo not drawn) [Compound 66, 7-((2-(2,6-dimethylmorpholino)pyrimidin-5-yl)amino)-4-methyl-2H-benzo[b][1,4]oxazin-3(4H)-one] | 0.1 to 100 nM
Cn1c(=O)oc2cc(Nc3ccc(C4CCC(C)(C)CC4)cc3)ccc21 [Compound 406, 6-((4-(4,4-dimethylcyclohexyl)phenyl)amino)-3-methylbenzo[d]oxazol-2(3H)-one] | 0.1 to 100 nM
CC1CN(c2ccc3cc(Nc4ccc5c(c4)OCC(=O)N5C)ccc3c2)CC(C)O1 (stereo not drawn) [Compound 71, 7-((6-(2,6-dimethylmorpholino)naphthalen-2-yl)amino)-4-methyl-2H-benzo[b][1,4]oxazin-3(4H)-one] | 0.1 to 100 nM
CC1CN(c2ccc(Nc3ccc4c(c3)n(C)c(=O)n4C)cc2)CC(C)O1 (stereo not drawn) [Compound 279, 5-((4-(2,6-dimethylmorpholino)phenyl)amino)-1,3-dimethyl-1,3-dihydro-2H-benzo[d]imidazol-2-one] | 0.1 to 100 nM
CC1CCN(c2c(F)cc(Nc3ccc4c(c3)CN(C)C4=O)cc2F)CC1 [Compound 192, 5-((3,5-difluoro-4-(4-methylpiperidin-1-yl)phenyl)amino)-2-methylisoindolin-1-one] | 0.1 to 100 nM
NC(=O)NCCN1C(=O)COc2cc(Nc3ccc(N4CCC(C(F)(F)F)CC4)cc3)ccc21 [Compound 40, 1-(2-(3-oxo-7-((4-(4-(trifluoromethyl)piperidin-1-yl)phenyl)amino)-2,3-dihydro-4H-benzo[b][1,4]oxazin-4-yl)ethyl)urea] | 0.1 to 100 nM
CNCCN1C(=O)COc2cc(Nc3ccc(C(C)(C)C)cc3)ccc21 [Compound 48, 7-((4-(tert-butyl)phenyl)amino)-4-(2-(methylamino)ethyl)-2H-benzo[b][1,4]oxazin-3(4H)-one] | 0.1 to 100 nM
Cc1nc(N2CCC(C(F)(F)F)CC2)ccc1Nc1ccc2c(c1)n(C)c(=O)n2C [Compound 373, 1,3-dimethyl-5-((2-methyl-6-(4-(trifluoromethyl)piperidin-1-yl)pyridin-3-yl)amino)-1,3-dihydro-2H-benzo[d]imidazol-2-one] | 0.1 to 100 nM
Cn1ccc2cc(Nc3ccc4c(c3)n(C)c(=O)n4C)ccc21 [Compound 266, 1,3-dimethyl-5-((1-methyl-1H-indol-5-yl)amino)-1,3-dihydro-2H-benzo[d]imidazol-2-one] | 0.1 to 100 nM
COC1(C(F)(F)F)CCN(c2ccc(Nc3ccc4c(c3)OCC(=O)N4C)cc2)CC1 [Compound 9, 7-((4-(4-methoxy-4-(trifluoromethyl)piperidin-1-yl)phenyl)amino)-4-methyl-2H-benzo[b][1,4]oxazin-3(4H)-one] | 0.1 to 100 nM
Cc1cc(Nc2ccc3c(c2)OCC(=O)N3)ccc1N1CCC(C(F)(F)F)CC1 [Compound 101, 7-((3-methyl-4-(4-(trifluoromethyl)piperidin-1-yl)phenyl)amino)-2H-benzo[b][1,4]oxazin-3(4H)-one] | 100 to 1000 nM
CCCCCOc1ccc(Nc2ccc3c(c2)n(C)c(=O)n3C)cc1OC [Compound 296, 5-((3-methoxy-4-(pentyloxy)phenyl)amino)-1,3-dimethyl-1,3-dihydro-2H-benzo[d]imidazol-2-one] | 0.1 to 100 nM
CN1CCN(CC(=O)N2CCc3cc(Nc4ccc(N5CCC(C(F)(F)F)CC5)c(F)c4)ccc3C2)CC1 [Compound 108, 1-(6-((3-fluoro-4-(4-(trifluoromethyl)piperidin-1-yl)phenyl)amino)-3,4-dihydroisoquinolin-2(1H)-yl)-2-(4-methylpiperazin-1-yl)ethan-1-one] | 0.1 to 100 nM
CC(C)(C)C(=O)N1CCOc2cc(Nc3ccc(N4CCC(C(F)(F)F)CC4)cc3)ccc21 [Compound 18, 2,2-dimethyl-1-(7-((4-(4-(trifluoromethyl)piperidin-1-yl)phenyl)amino)-2,3-dihydro-4H-benzo[b][1,4]oxazin-4-yl)propan-1-one] | 0.1 to 100 nM

Same assay, conditions: Homo sapiens; HT-1080 cells treated with RSL3; 3-fold, 10-point dilution, 1.1 μM highest concentration; Table 3; read-out: EC50 (nM), ferroptosis inhibitory activity

Structure (SMILES) | EC50
Cc1cc(N2CCC(C(F)(F)F)CC2)ccc1Nc1ccc2c(c1)OC(CN)C(=O)N2C (stereo not drawn) [Compound 607, 2-(aminomethyl)-4-methyl-7-((2-methyl-4-(4-(trifluoromethyl)piperidin-1-yl)phenyl)amino)-2H-benzo[b][1,4]oxazin-3(4H)-one] | 0.1 to 100 nM
O=C1COc2cc(Nc3ccc(N4CCC(C(F)(F)F)CC4)cn3)ccc2N1 [Compound 476] | 0.1 to 100 nM
Cc1cc(N2CCC(C(F)(F)F)CC2)ccc1Nc1ccc2c(c1)OCCC(=O)N2 [Compound 533] | 0.1 to 100 nM
Cc1cc(N2CCC(C(F)(F)F)CC2)ccc1Nc1ccc2c(c1)OCCC(=O)N2C [Compound 594, 5-methyl-8-((2-methyl-4-(4-(trifluoromethyl)piperidin-1-yl)phenyl)amino)-2,3-dihydrobenzo[b][1,4]oxazepin-4(5H)-one] | 0.1 to 100 nM
COc1cc(Nc2ccc(N3CCC(C(F)(F)F)CC3)cc2C)cc2c1N(C)C(=O)CO2 [Compound 565, 5-methoxy-4-methyl-7-((2-methyl-4-(4-(trifluoromethyl)piperidin-1-yl)phenyl)amino)-2H-benzo[b][1,4]oxazin-3(4H)-one] | 0.1 to 100 nM
Cc1c(Nc2ccc3c(c2)OCC(=O)N3)ccc(N2CCC(C(F)(F)F)CC2)c1F [Compound 454, 7-((3-fluoro-2-methyl-4-(4-(trifluoromethyl)piperidin-1-yl)phenyl)amino)-2H-benzo[b][1,4]oxazin-3(4H)-one] | 0.1 to 100 nM
Cc1cc(N2CCC(C(F)(F)F)C2)ccc1Nc1ccc2c(c1)OCC(N)C(=O)N2 (stereo not drawn) [Compound 613, 3-amino-8-((2-methyl-4-(3-(trifluoromethyl)pyrrolidin-1-yl)phenyl)amino)-2,3-dihydrobenzo[b][1,4]oxazepin-4(5H)-one] | 0.1 to 100 nM
Cc1cc(Nc2ccc3c(c2)OCC(=O)N3CCO)ccc1N1CC(C)OC(C)C1 (stereo not drawn) [Compound 455, 7-((4-(2,6-dimethylmorpholino)-3-methylphenyl)amino)-4-(2-hydroxyethyl)-2H-benzo[b][1,4]oxazin-3(4H)-one] | 0.1 to 100 nM
